Measurements reported in US6054464A (priority 1996, dated 2000).

Target: α7 nAChR subtype (Rattus norvegicus, UniProt Q05941)
Assay type: binding

α7 nAChR subtype, sequence (Q05941 23-502 limits assumed): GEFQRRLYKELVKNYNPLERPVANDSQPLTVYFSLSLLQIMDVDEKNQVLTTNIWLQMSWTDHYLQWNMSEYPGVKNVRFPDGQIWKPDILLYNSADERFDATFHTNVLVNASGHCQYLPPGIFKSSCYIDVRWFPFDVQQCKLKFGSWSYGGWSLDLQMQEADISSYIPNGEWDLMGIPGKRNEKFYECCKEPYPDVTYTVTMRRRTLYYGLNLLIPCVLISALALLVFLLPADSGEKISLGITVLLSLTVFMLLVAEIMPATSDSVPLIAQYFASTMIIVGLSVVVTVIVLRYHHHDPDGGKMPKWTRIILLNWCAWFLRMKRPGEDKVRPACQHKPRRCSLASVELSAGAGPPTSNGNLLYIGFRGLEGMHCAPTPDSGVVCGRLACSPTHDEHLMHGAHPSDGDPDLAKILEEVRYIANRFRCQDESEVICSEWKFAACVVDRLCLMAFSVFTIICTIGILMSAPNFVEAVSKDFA

For “[^125 I]-α-Bungarotoxin [[^125 I]-α-BTX]”, the Kd was 1.67 nM.
